B1: trypsin: protease (9590 units/mg) used to remove cell surface proteins from PC12 cells (protein, UniProt P00760 24-246, looked up)
Serine protease 1: IVGGYTCGANTVPYQVSLNSGYHFCGGSLINSQWVVSAAHCYKSGIQVRLGEDNINVVEGNEQFISASKSIVHPSYNSNTLNNDIMLIKLKSAASLNSRVASISLPTSCASAGTQCLISGWGNTKSSGTSYPDVLKCLKAPILSDSSCKSAYPGQITSNMFCAGYLEGGKDSCQGDSGGPVVCSGKLQGIVSWGSGCAQKNKPGVYTKVCNYVSWIKQTIASN

How the values were obtained:
[1] = unlabelled mutant; cited from earlier work
Text: We also studied a double mutant (F19S/L34P) of Aβ42 (hereon referred to as 'mutant peptide'), which was discovered through a GFP-based screen for mutations that reduce the aggregation p ...

[2] = system: NGF differentiated PC12 cells; assay: Blocking the binding of Aβ42 to the surface of live PC12 cells (flow cytometry); type: cell-based, rat; details: cells pre-treated with the reagent, then TMR-labelled Aβ42 1.5 μM for 1-2 hours, trypsin 10 μg/mL 15 min then SBTI, Figure 6A
Experimental: NGF differentiated PC12 cells treated with Aβ (1.5 μM) were washed once with cold D-PBS, followed by mechanical detachment with D-PBS. Collected cells were centrifuged (200 × g for 1 minute) and resuspended in cold flow buffer containing 5 mM EDTA and 1% BSA (Fisher Scientific, Nepean, ON) in D-PBS. Samples were immediately analyzed with a FACS Calibur flow cytometer (Becton Dickinson, Mississauga, ON). TMR-labelled samples were detected with 585/42 filter collecting 5 × 10^4 events per sample using 100–300 events/s flow rate. Cell viability was assessed with 25 μg/mL 7-Aminoactinomycin D (7-AAD) treatment for 5 minutes and detected with a long pass 650 nm filter. Data collection and analysis were performed using Cell Quest version 3.3 and figures were created using WinMDI version 2.8 software.
Various treatments to block or remove lipid, carbohydrate, or protein components from the surface of live PC12 cells were performed and their effects on Aβ binding was examined. NGF differentiated PC12 cells were treated with 100 ng/mL FITC labelled annexin V (to block negatively charged phospholipids) or 10 μg/mL FITC labelled cholera toxin subunit B (to block GM1 ganglioside) for 20 minutes before addition of Aβ42 (final concentration 1.5 μM) for two hours. […] After Aβ42 addition, treated cells and untreated control cells were analyzed using flow cytometry.

Row | Molecule | aggregation state of the mutant [1] | effect of cell surface treatment on Aβ42 binding [2]
1 | DAEFRHDSGYEVHHQKLVSFAEDVGSNKGAIIGPMVGGVVIA [double mutant (F19S/L34P) of Aβ42, double mutant (F19S/L34P) of Aβ42 with reduced aggregation propensity, unlabelled] | soluble unstructured monomeric peptide | –
2 | B1 | – | significantly decreased

— article PMC1871596, “Requirement of aggregation propensity of Alzheimer amyloid peptides for neuronal cell surface binding” (BMC Neuroscience, 2007)
